Laboratory results taken from patent publication US20150164901A1, “COMPOUNDS, COMPOSITIONS AND METHODS FOR TREATING OR PREVENTING NEURODEGENERATIVE DISORDERS” (President and Fellows of Harvard College, priority 2012, published 2015).

Columns and labels:
SMN protein = assay: SMN-specific antibody staining of SMA patient and parent fibroblasts (FIG. 2C); assay type: cell-based; conditions: human fibroblasts derived from SMA patients and their parents
From the text: FIG. 2A is a Western blot analysis showing the levels of SMN in cells expressing wild-type SMN and the dominant negative form of Cullin1 protein. […] FIGS. 2D and 2E are dose response curves of nuclear (FIG. 2D) and cytoplasmic (FIG. 2E) SMN levels in SMA patient and parent fibroblasts treated with MLN4924 at the indicated time points. The error bars in FIGS. 2D and 2B indicate ±S.E.M. SMN levels are normalized to DMSO control for each cell line at each time point.

SMN [1] = assay: Western blot of SMN in lysates of motor neuron cultures (FIG. 6A-6B); assay type: cell-based; conditions: treated for 3 days, DMSO as control
SMN transcript = assay: Quantitative RT-PCR of SMN transcript in motor neuron cultures (FIG. 6C); assay type: cell-based; conditions: compared to control
SMN [2] = assay: Immunocytochemical analysis of SMN in motor neurons derived from mouse embryonic stem cells (FIG. 6D-6G); assay type: cell-based
From the text: FIGS. 6B and 6C are bar graphs quantifying the results in FIG. 6A. […] SMN is shown in red and GFP driven by the motor neuron specific promoter hb9 is shown in green. […] High SMN expressor is defined as those motor neurons that harbor SMN levels greater than the top 10th percentile as defined in the DMSO control. Error bars indicate ±S.E.M.

[3] = system: motor neurons derived from ES cells; assay: Survival of ES cell-derived hb9-GFP motor neurons, time-course imaging (FIG. 7); assay type: cell-based, mouse
Experimental: FIG. 7A is a line graph showing the results of a time-course analysis of motor neurons derived from ES cells expressing GFP under the motor neuron specific hb9 promoter performed with imaging every 6 hours for a 7 day period. […] The error bars indicate ±S.E.M.

hb9_RFP motor neurons = assay: SMN knockdown (shRNA lentivirus) induced motor neuron death (FIG. 8A-8B); assay type: cell-based; conditions: SMN knockdown using shRNA lentivirus in hb9_RFP motor neurons
From the text: (§1) MLN4924 is able to reverse the effects of SMN knockdown on motor neuron death. Representative images are shown.

SMN [4] = assay: Histogram analysis of SMN expression in motor neurons under SMN RNAi (FIG. 8C); assay type: cell-based
From the text: as §1

[5] = system: SMN-deficient motor neurons; assay: Survival of SMA-like mouse motor neurons derived from ES cells of A2 mice (FIG. 9B); assay type: cell-based; conditions: A2 mouse ES-derived motor neurons (no mSMN, two copies of hSMN2), treated four days
Experimental: (§2) FIG. 9A are images of immunostains of motor neurons derived from the ES-cells of A2 mice that lack a functional copy of mSMN but are supplemented with two copies of hSMN2 and thus are deficient but not completely lacking SMN protein were treated with MLN4924 for four days, SMN is shown in red and the hb9 promoter driven-GFP is shown in green. […] The error bars indicate ±S.E.M.

SMN [6] = assay: SMN immunostaining in SMA-like mouse motor neurons (FIG. 9C-9D); assay type: cell-based; conditions: A2 mouse ES-derived motor neurons, treated four days
Experimental: as §2

[7] = system: SMN-deficient human motor neurons; assay: Survival of human motor neurons derived from SMA patient iPS cells (FIG. 10C, 10E); assay type: cell-based; conditions: SMA Type II (1-51) and SMA Type I iPS-derived motor neurons on glia with Ara C, 7 days
From the text: (§3) Representative images are shown for Type II motor neurons. SMN is shown in red, the motor neuron marker islet 1 is shown in green, and the nuclear marker Hoechst is shown in blue. […] Error bars indicate ±S.E.M.

SMN [8] = assay: SMN immunostaining in human motor neurons derived from SMA patient iPS cells (FIG. 10B, 10D, 10F); assay type: cell-based; conditions: SMA Type II (1-51) and SMA Type I iPS-derived motor neurons on glia with Ara C, 7 days
From the text: as §3

[9] = system: human motor neurons derived from ALS patient iPS cells; assay: Survival of human motor neurons derived from wild-type and ALS patient ES or iPS cells (FIG. 11); assay type: cell-based; conditions: wild-type (HUES3, 18a) and ALS patient (47a) lines on glia, treated 14 days after 7 days in culture
From the text: FIG. 11A are immune stains of motor neurons derived from human wild-type (HUES3, 18a) and ALS patient (47a) ES or iPS cells. […] Representative images are shown for the Hues3 line which expresses GFP under the hb9 promoter shown is green, human nuclear antigen (hNA) shown in pink, and the nuclear marker Hoechst is shown in blue. […] Error bars indicate ±S.E.M.

Brn2+ neurons = assay: Survival of Brn2+ neurons (FIG. 13); assay type: cell-based; conditions: compared to DMSO control
SMN [10] = assay: SMN levels in wild type and patient iPS-derived motor neurons (FIG. 16); assay type: cell-based, human; conditions: motor neurons BJ RIPS (WT), A19 (C9 ORF), 27B (SOD1), 1-51N (SMA type II)
motor neurons = assay: Survival of wild type and ALS patient motor neurons (FIG. 17); assay type: cell-based, human; conditions: BJ RIPS (WT), 18A (WT), 27B (SOD1), 31D (TDP43), A19 (C9ORF)
Gem counts = Gem counts in wild type and ALS patient motor neurons (FIG. 18); assay type: cell-based, human; conditions: motor neurons 18A (WT), A19 (C9 ORF), 31D (TDP43), 27B (SOD1)
SMN [11] = assay: SMN in human motor neurons (summary of data); assay type: cell-based; conditions: human MNs
From the text: (§4) As shown herein, MLN increases SMN in human MNs, both in measures of average SMN and # of high SMN expressors. […] The effect on proliferation can be dissociated, for example, by using AraC in protocols for differentiation of cells into motor neurons.

human motor neurons [12] = assay: Motor neuron survival in human motor neurons (summary of data); assay type: cell-based
From the text: as §4

[13] = system: proliferation in the culture; assay: Proliferation in motor neuron cultures; assay type: cell-based
From the text: as §4

human motor neurons [14] = assay: SMN expression distribution in human motor neurons treated with Trichostatin A (FIG. 14); assay type: cell-based; conditions: compared to a control

## NS(=O)(=O)OC[C@@H]1C[C@@H](n2ccc3c(N[C@H]4CCc5ccccc54)ncnc32)C[C@@H]1O [MLN4924, ((1S,2S,4R)-4-(4-(((S)-2,3-dihydro-1H-inden-1-yl)amino)-7H-pyrrolo[2,3-d]pyrimidin-7-yl)-2-hydroxycyclopentyl)methyl sulfamate]
SMN protein
  SMN protein (SMN-specific antibody staining): stabilization of SMN protein
SMN [1]
  SMN levels (Western blot): significantly increased
SMN transcript
  SMN transcript levels (quantitative RT-PCR): not significantly affected
SMN [2]; high SMN expressor = SMN levels greater than the top 10th percentile of DMSO control
  number of high SMN expressing motor neurons: dose-dependent effect
SMN [2]; mouse ES-derived motor neurons
  amount of low SMN expressors (histogram analysis): without affecting
  number of motor neurons with higher levels of SMN expression (histogram analysis): increases
SMN [2]; mouse ES-derived motor neurons, treated at plating, fixed four days later, increasing levels of MLN4924
  average intensity of SMN: significantly increases in a dose-dependent manner
[3]; imaging every 6 hours for a 7 day period
  motor neuron survival (time-course analysis): significantly increases
[3]; mouse-ES derived motor neurons
  motor neuron survival (dose response): dose-dependent significant increase
hb9_RFP motor neurons
  effect of SMN RNAi on inducing motor neuron death: significantly inhibits
SMN [4]
  number of high SMN expressing motor neurons: increases
[5]
  number of surviving motor neurons: significantly increases
SMN [6]
  SMN levels: significantly increases
  number of high SMN expressing motor neurons: significantly increases
[7]
  number of surviving motor neurons: significantly increases
SMN [8]
  SMN levels: significantly increases
  number of high SMN expressing motor neurons: significantly increases
[9]
  number of surviving motor neurons: significantly increases
Brn2+ neurons
  survival of Brn2+ neurons: increases survival
SMN [10]
  SMN levels: increases SMN levels
Motor neurons
  survival of motor neurons: increases the survival
Gem counts
  Gem counts: increases Gem counts
SMN [11]
  # of high SMN expressors: increases
  average SMN: increases
Human motor neurons [12]
  survival of motor neurons derived from ALS patients and their parents: promotes survival
  survival of motor neurons derived from SMA patients and their parents: promotes survival
Human motor neurons [12]; human motor neurons
  motor neuron survival: promote motor neuron survival
Human motor neurons [12]; preliminary, believed to depend on the amount of proliferation in the culture
  MN survival, preliminary results: variable
[13]
  proliferation: inhibits proliferation

## CC(/C=C/C(=O)NO)=C\[C@@H](C)C(=O)c1ccc(N(C)C)cc1 [Trichostatin A]
Human motor neurons [14]
  number of low SMN expressing motor neurons: selectively reduces
